Measured values from US12448388B2, “PRMT5 inhibitors and uses thereof” (Gilead Sciences, Inc., priority 2023, dated 2025).
Values after ≈ are worked out from the molar mass of the structure shown. Read-outs that look alike come from different tables or passages of the source.

Legend:
[1] = Hepatocyte stability assay, human; format: in vitro ADME; settings: human hepatocytes, 1 μM
Description: BioreclamationIVT (Baltimore, MD) provided the cryopreserved hepatocytes, hepatocyte thawing (HT) medium, and Krebs-Henseleit buffer (KHB) medium. The stock solution concentration was 1 M in DMSO and was then diluted further in acetonitrile/water (1:1 v/v). All other chemicals were purchased from Sigma-Aldrich (St. Louis, MO) or Thermo Fisher Scientific (Waltham, MA).
The quench solution used to stop reactions in the hepatocyte incubations was comprised of 100% (v/v) acetonitrile. Internal Standard/Quench (IS/Q) solution used to stop reactions with the positive control also contained 200 nM Labetalol.
Metabolic Stability in Cryopreserved Hepatocytes: Test compounds, or the positive control metabolic substrate, was incubated in suspensions of cryopreserved hepatocytes at a final concentration of 1 μM. Vials containing cryopreserved hepatocytes were removed from liquid nitrogen and immediately immersed in a 37° C. water bath. The vials were swirled gently until the contents had thawed. They were then immediately emptied into 48 mL of pre-warmed thawing medium in a 50 mL conical tube. Cells remaining in the vial were re-suspended with 1.0 mL of pre-warmed thawing medium and added to the conical tube. The tube was capped and then gently inverted several times to re-suspend the hepatocytes. The cell suspension was centrifuged at 500×g for 10 minutes at room temperature and the supernatant discarded. The cell pellet was loosened by gently swirling the centrifuge tube. Non-supplemented KHB medium was added to obtain the appropriate target cell density. The viabilities of all cell preparations were ≥85%, assessed by Trypan blue dye exclusion.
For incubations, aliquots of hepatocyte suspension (250 μL containing a cell concentration of 2×10^6 cells/mL) were added to 250 μL of 2 μM substrate (test compound or positive control) in supplemented KHB in duplicate wells in a 24-well plate. Final concentration in the incubations were 1×10^6 cells/mL and 1 μM substrate. A cell-free control incubation (KHB only) was also included. The incubations were carried out with gentle shaking in a 37° C. incubator under a humid atmosphere of 95% air/5% CO2 (v/v). Aliquots (100 μL) were removed after 0, 1, 3, and 6 hours and added to 200 μL quenching solution. The samples were then placed on a shaker for 10 min followed by centrifugation at 3000×g for 20 min. The supernatant was transferred to a new plate and diluted with 100 μL of water to reduce the organic content and then placed on a shaker for 10 mins. Samples were injected and analyzed with methods described below.
Liquid Chromatography: Quantification of positive control and test compound was performed by analyte/internal standard peak area ratios (PAR) measured on a Thermo Scientific™ Q Exactive™ Hybrid Quadrupole-Orbitrap Mass Spectrometer MS/MS with an electrospray interface operating in positive ion mode. The mass spectrometer was coupled to a Dionex Ultimate® 3000 HPLC system. Samples (10 μL aliquots) were injected with a Leap Technologies HTC PAL autosampler. For positive control, the column used was a Thermo Scientific™ Hypersil GOLD™ HPLC column ([…], 50×2.1 mm). Mobile phase A consisted of 95% (v/v) water, 5% (v/v) acetonitrile, and contained 0.1% (v/v) formic acid (FA). Mobile phase B consisted of 95% (v/v) acetonitrile, 5% (v/v) water, and contained 0.1% (v/v) FA. Elution was achieved, at a flow rate of 0.5 mL/min, by a series of linear gradients: initial condition was 5% B at 0 min, isocratic for 20 seconds; then linear gradient to 95% B over 90 seconds, followed by isocratic for 60 seconds at 95% B, and re-equilibrated to initial conditions over 70 seconds.
Metabolic stabilities of positive control and test compound were determined by measuring the rates of disappearance of the parent with time by determining the % of parent remaining at time t (Ct) {Obach 1997}.
Data (% of parent remaining) were plotted on a semi-log scale and fitted using an exponential fit: […]

[2] = MDR1/BCRP assay: permeability in cPgp-KO-MDCK-WT cells; format: in vitro ADME; settings: dog, pH 7.4
Description: The cells were maintained in an incubator at 37° C., 90% humidity, and 5% CO2 until reaching confluence over 5 days in 96-well transwell plates. Experiments were conducted using an HBSS donor buffer (Invitrogen) containing 10 mM HEPES and 15 mM glucose, adjusted to pH 7.4. The receiver well contained HBSS buffer supplemented with 1% BSA, 10 mM HEPES, and 15 mM glucose, and the pH was adjusted to 7.4. TEER values were measured to assess membrane integrity after an initial equilibration with BSA-free transport buffer for 15 minutes. The experiment was started by adding dosing solutions containing test compounds at 1 μM. Cells were dosed on the apical (A) side or basolateral (B) side at 100 μl and 200 μl, respectively, to determine forward (A to B) and reverse (B to A) permeability. At the 2-hour time point, 50 μl samples were collected from the receiver compartment. Each compound was tested in 2 separate replicate wells for each condition. All samples were immediately collected into plates, and 50 μL of acetonitrile was added. Subsequently, 350 μl of 30:70 methanol: acetonitrile containing internal standard was added to precipitate proteins and stabilize the test compounds. To test for non-specific binding and compound instability, the total amount of the drug was quantified at the end of the experiment and compared to the material present in the original dosing solution as a percentage of the recovery. All samples were analyzed by LC-MS/MS using electrospray ionization.
The apparent permeability, Papp, and % recovery were calculated as follows: […]

[3] = test system: HCT116 MTAP-deleted cell lines; test: Cell viability assay (CellTiter-Glo, 7 days), HCT116 MTAP-deleted; format: cell-based; settings: for Selectivity: HCT116 WT CC50 versus HCT116 MTAP^del CC50; for plasma-adjusted CC50 (paCC50): paCC50 = CC50-HCT116-MTAP^del * (% free CCM/% free human plasma); for CC50: Homo sapiens, HCT116 MTAP-deleted
How it was run: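 Read-out was CellTiter-Glo luminescence after a 7-day incubation (37 °C, 5% CO2) of HCT116 cells, MTAP-deleted or WT, on dose-response compound plates. CC50 values come from each line; where marked *, selectivity is overstated because poor solubility impaired the WT CC50 measurement.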

[4] = PBS solubility (kinetic solubility from DMSO stocks); format: physicochemical; settings: 22 °C, aqueous buffer, kinetic from dmso stock; 1x PBS pH 7.4, 1.0% DMSO, 24-hour incubation at ambient temperature
Description: Buffer Preparation: 1×PBS, 7.4: Phosphate Buffered Saline solution 10×, PBS (Fisher Bioreagent, part number BP399-500) 50 mL was added to approximately 450 mL HPLC grade H2O. The volume of the solution was then adjusted to 500 mL for a total dilution factor of 1:10 and a final PBS concentration of 1×. The pH of the final solution was measured and found to be 7.4.
The final DMSO Concentration is 1.0% and maximum theoretical compound concentration is 100 μM (assuming stock concentration of 10 mM). The filter plate was sealed. Following 24-hour incubation at ambient temperature (20.8-24.0° C.), the samples were vacuum filtered, and the filtrates were collected in a 96 well polypropylene plate for analysis. The collection plate was sealed for analysis. Filtrates were injected into the nitrogen detector for quantification on Analiza's Automated Discovery Workstation. The results are reported here in both μM and μg/mL.
Calculation of Results: The equimolar nitrogen response of the detector is calibrated using standards which span the dynamic range of the instrument from 0.08 to 4500 μg/ml nitrogen. The filtrates were quantified with respect to this calibration curve. The calculated solubility values are corrected for background nitrogen present in the DMSO, and the media used to prepare the samples. All reported values for compounds containing adjacent nitrogen atoms in a ring structure should be increased by ˜25%. […] The solubility results presented assume that the samples were free of nitrogen containing impurities and are stable under the assay conditions.

[5] = Cell viability assay (CellTiter-Glo, 7 days), HCT116 WT; format: cell-based; settings: human, HCT116 WT cells, 7 days of treatment, CTG
Description: Control compounds were analyzed in parallel each time for quality control. In Brief, on Day -1, a serial dilution of stock compounds in DMSO was performed using BioMek liquid handlers and dispensed using Echo acoustic dispenser into 384 well plates. Both tool compounds and sample compounds were spotted in the same plate for a dose response of PRMT5 inhibitors. Compound plates were stored as frozen until the cells were ready for seeding. […] After equilibrating the plate in room temperature, the cells were incubated for 7 days inside the sealed incubator set at 37° C. with 90% humidity and 5% CO2. On Day 7, the viability of cells was measured using a CTG assay kit (CellTitre-Glo;Promega cat no. G7573). Shortly, 40 μl per well of luminescent cell viability assay reagent were dispensed using EL460 liquid dispenser 5 μl cassette. CTG luminescence signal was measured using an EnVision plate reader (PerkinElmer) in accordance with manufacturer's instruction. […] Selectivity with * is artificially high due to limited solubility of the compound hampering accurate measurement of WT CC50.

[6] = HCT-116, 168 h, 7 days of treatment, CTG, read-out: CC50-HCT116-MTAP^del
[7] = HCT-116, cell viability, class symbols, read-out: CC50

| Compound | Human Predicted Hepatocyte CL [1] | Papp A→B at 2 h, 1 µM [2] | Selectivity [3] | plasma-adjusted CC50 (paCC50) ([3]; HCT-116) | CC50 [3, 6] | solubility at 24 h [4] | CC50 at 7 days [5] | CC50 [3, 7] |
| --- | --- | --- | --- | --- | --- | --- | --- | --- |
| Cc1ncc2c(N)nc3cnc(C(=O)N4CCC[C@@H]5Oc6cc(OC(F)(F)F)cc(F)c6[C@@H]54)cc3n12 [Fg-66, (4-amino-1-methylimidazo[1,5-a]pyrido[3,4-e]pyrazin-8-yl)((4aS,9bS)-9-fluoro-7-(trifluoromethoxy)-3,4,4a,9b-tetrahydrobenzofuro[3,2-b]867yridine-1(2H)-yl)methanone] | 4.67 mL/min/kg | 19.3 ×10⁻⁶ cm/s | 116 | 788 nM | 72 nM | < 1 µM | 8370 nM |  |
| Nc1nc2ccc(C(=O)N3CCC[C@@H]4Oc5cc(OC(F)(F)F)cc(F)c5[C@@H]43)cc2n2cncc12 [Ff-697, (4-aminoimidazo[1,5-a]quinoxalin-8-yl)((4aS,9bS)-9-fluoro-7-(trifluoromethoxy)-3,4,4a,9b-tetrahydrobenzofuro[3,2-b]pyridin-1(2H)-yl)methanone] | 6.7 mL/min/kg |  | 199 | 289 nM | 25 nM | 2.5 µM (≈ 1.22 µg/mL) | 4990 nM |  |
| Nc1nc2ccc(C(=O)N3CCC[C@@H]4Oc5cc(C(F)(F)F)cc(F)c5[C@@H]43)cc2n2cncc12 [Ff-693, (4-aminoimidazo[1,5-a]quinoxalin-8-yl)((4aS,9bS)-9-fluoro-7-(trifluoromethyl)-3,4,4a,9b-tetrahydrobenzofuro[3,2-b]pyridin-1(2H)-yl)methanone] | 5.17 mL/min/kg | 12.6 ×10⁻⁶ cm/s | 125 | 247 nM | 15 nM |  | 1880 nM |  |
| Cc1ncc2c(N)nc3cnc(C(=O)N4CCC[C@@H]5Oc6cc(C(F)(F)F)ccc6[C@@H]54)cc3n12 [Ff-344, (4-amino-1-methylimidazo[1,5-a]pyrido[3,4-e]pyrazin-8-yl)((4aS,9bS)-7-(trifluoromethyl)-3,4,4a,9b-tetrahydrobenzofuro[3,2-b]pyridin-1(2H)-yl)methanone] | 1.2 mL/min/kg | 14.7 ×10⁻⁶ cm/s | 85 | 476 nM | 27 nM | < 1 µM | 2300 nM | < 100 nM |
| Cc1ncc2c(N)nc3cnc(C(=O)N4CCC[C@@H]5Oc6cc(C(F)(F)F)cc(F)c6[C@@H]54)cc3n12 [Fg-67, (4-amino-1-methylimidazo[1,5-a]pyrido[3,4-e]pyrazin-8-yl)((4aS,9bS)-9-fluoro-7-(trifluoromethyl)-3,4,4a,9b-tetrahydrobenzofuro[3,2-b]pyridin-1(2H)-yl)methanone] | 4 mL/min/kg | 18.5 ×10⁻⁶ cm/s | 112 | 402 nM | 38 nM | 1.7 µM (≈ 0.827 µg/mL) | 4260 nM |  |
| Nc1nc2cc(F)c(C(=O)N3CC[C@H]4C[C@@H]3c3ccc(C(F)(F)F)nc3O4)cc2n2cncc12 [Ff-366, (4-amino-7-fluoroimidazo[1,5-a]quinoxalin-8-yl)((2S,6R)-9-(trifluoromethyl)-3,4-dihydro-2H-2,6-methanopyrido[2,3-b][1,5]oxazocin-5(6H)-yl)methanone] | 0.83 mL/min/kg | 9 ×10⁻⁶ cm/s | 75 | 206 nM | 29 nM | 25.2 µM (≈ 11.9 µg/mL) | 2170 nM | < 100 nM |
| Cc1ncc2c(N)nc3cnc(C(=O)N4CC[C@H]5C[C@@H]4c4cc(F)c(C(F)(F)F)cc4O5)cc3n12 [Ff-696, (4-amino-1-methylimidazo[1,5-a]pyrido[3,4-e]pyrazin-8-yl)((2S,6R)-8-fluoro-9-(trifluoromethyl)-3,4-dihydro-2H-2,6-methanobenzo[b][1,5]oxazocin-5(6H)-yl)methanone] | 4.5 mL/min/kg | 21 ×10⁻⁶ cm/s | 83 | 198 nM | 17 nM | 2.9 µM (≈ 1.41 µg/mL) | 1410 nM |  |
